IC50, inhibition and Ratio IC50 data for 8 compounds are collected here from ChEMBL document CHEMBL2380312, “Discovery of the first histone deacetylase 6/8 dual inhibitors” (J Med Chem, 2013).

One may read the IC50 as the concentration that gives 50% inhibition.

The source made the active and inactive calls. No cut-off for these calls is given here.

Experiment [1] addresses T1, Histone deacetylase 2 (Homo sapiens, UniProt Q92769). Description: Inhibition of HDAC2 (unknown origin) after 60 mins by fluorescence assay.
The target in a further experiment is T2, Histone deacetylase 8 (Homo sapiens, UniProt Q9BY41).
T2 sequence (Q9BY41 whole entry): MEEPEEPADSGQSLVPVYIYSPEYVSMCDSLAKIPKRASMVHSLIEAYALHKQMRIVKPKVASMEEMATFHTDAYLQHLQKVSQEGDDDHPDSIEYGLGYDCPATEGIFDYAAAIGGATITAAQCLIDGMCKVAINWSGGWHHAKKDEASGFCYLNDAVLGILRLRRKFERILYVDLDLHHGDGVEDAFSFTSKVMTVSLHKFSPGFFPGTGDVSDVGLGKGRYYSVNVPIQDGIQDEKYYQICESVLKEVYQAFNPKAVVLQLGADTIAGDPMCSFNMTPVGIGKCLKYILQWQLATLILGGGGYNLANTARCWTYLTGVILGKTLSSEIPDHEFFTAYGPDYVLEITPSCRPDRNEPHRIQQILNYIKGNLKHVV
Description: Inhibition of HDAC8 (unknown origin) after 60 mins by fluorescence assay.

The target of another experiment is Histone deacetylase 4 (Homo sapiens, UniProt P56524). Description: Inhibition of HDAC4 (unknown origin) after 60 mins by fluorescence assay.
The target of experiment [2] is T3, Protein deacetylase HDAC6 (Homo sapiens, UniProt Q9UBN7).
T3 sequence (Q9UBN7 whole entry): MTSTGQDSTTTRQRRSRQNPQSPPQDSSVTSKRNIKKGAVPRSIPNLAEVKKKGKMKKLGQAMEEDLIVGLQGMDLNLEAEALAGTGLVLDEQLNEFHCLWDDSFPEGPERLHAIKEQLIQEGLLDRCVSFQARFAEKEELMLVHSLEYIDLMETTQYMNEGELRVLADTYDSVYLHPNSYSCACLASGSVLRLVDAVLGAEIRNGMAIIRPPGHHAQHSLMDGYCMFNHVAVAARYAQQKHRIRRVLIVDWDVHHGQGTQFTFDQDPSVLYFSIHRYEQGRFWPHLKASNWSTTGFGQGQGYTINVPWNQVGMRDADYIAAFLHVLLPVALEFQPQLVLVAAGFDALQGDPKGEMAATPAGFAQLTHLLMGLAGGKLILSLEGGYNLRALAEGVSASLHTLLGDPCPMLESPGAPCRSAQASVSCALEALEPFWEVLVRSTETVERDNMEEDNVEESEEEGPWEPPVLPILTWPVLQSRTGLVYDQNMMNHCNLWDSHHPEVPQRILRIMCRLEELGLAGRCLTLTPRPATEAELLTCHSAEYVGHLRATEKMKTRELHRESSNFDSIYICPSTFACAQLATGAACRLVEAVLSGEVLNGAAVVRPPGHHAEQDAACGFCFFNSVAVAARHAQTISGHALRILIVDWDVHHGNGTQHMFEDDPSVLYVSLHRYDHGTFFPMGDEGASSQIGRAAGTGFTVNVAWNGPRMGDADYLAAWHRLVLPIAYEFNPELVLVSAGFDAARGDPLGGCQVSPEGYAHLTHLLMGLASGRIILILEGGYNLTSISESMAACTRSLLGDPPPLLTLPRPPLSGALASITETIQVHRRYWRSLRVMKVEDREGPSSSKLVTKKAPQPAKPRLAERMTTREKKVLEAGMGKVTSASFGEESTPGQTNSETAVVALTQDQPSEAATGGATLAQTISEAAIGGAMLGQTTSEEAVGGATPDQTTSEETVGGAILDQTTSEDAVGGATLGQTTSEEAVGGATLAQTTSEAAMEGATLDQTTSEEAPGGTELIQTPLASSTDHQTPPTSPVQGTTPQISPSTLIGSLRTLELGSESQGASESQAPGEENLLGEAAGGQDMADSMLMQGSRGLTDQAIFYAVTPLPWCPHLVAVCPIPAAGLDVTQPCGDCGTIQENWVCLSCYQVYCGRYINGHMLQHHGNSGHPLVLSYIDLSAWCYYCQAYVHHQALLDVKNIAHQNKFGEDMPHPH
Description: Inhibition of HDAC6 (unknown origin) after 60 mins by fluorescence assay.

For another experiment, the target named is Histone deacetylase 9 (Homo sapiens, UniProt Q9UKV0). Description: Inhibition of HDAC9 (unknown origin) after 60 mins by fluorescence assay.
For a further experiment, the target named is Histone deacetylase 5 (Homo sapiens, UniProt Q9UQL6). Description: Inhibition of HDAC5 (unknown origin) after 60 mins by fluorescence assay.
The target in experiment [3] is T1, Histone deacetylase 2. To be noted: HeLa, at 10 µM.
Description: Inhibition of HDAC2 in human HeLa cells assessed as increase in histone H3 acetylation at 10 uM after 48 hrs by Western blotting analysis
For the next experiment, the target named is Histone deacetylase 1 (Homo sapiens, UniProt Q13547). Description: Inhibition of HDAC1 (unknown origin) after 60 mins by fluorescence assay.
For a further experiment, the target named is Histone deacetylase 3 (Homo sapiens, UniProt O15379). Description: Inhibition of HDAC3 (unknown origin) after 60 mins by fluorescence assay.
The species named for experiment [4] is Homo sapiens. Description: Selectivity ratio of IC50 for HDAC2 (unknown origin) to IC50 for HDAC8 (unknown origin).
The species entered for experiment [5] is Homo sapiens. Description: Selectivity ratio of IC50 for HDAC2 (unknown origin) to IC50 for HDAC6 (unknown origin).
The target of another experiment is T4, Histone deacetylase 7 (Homo sapiens, UniProt Q8WUI4).
T4 sequence (Q8WUI4 whole entry): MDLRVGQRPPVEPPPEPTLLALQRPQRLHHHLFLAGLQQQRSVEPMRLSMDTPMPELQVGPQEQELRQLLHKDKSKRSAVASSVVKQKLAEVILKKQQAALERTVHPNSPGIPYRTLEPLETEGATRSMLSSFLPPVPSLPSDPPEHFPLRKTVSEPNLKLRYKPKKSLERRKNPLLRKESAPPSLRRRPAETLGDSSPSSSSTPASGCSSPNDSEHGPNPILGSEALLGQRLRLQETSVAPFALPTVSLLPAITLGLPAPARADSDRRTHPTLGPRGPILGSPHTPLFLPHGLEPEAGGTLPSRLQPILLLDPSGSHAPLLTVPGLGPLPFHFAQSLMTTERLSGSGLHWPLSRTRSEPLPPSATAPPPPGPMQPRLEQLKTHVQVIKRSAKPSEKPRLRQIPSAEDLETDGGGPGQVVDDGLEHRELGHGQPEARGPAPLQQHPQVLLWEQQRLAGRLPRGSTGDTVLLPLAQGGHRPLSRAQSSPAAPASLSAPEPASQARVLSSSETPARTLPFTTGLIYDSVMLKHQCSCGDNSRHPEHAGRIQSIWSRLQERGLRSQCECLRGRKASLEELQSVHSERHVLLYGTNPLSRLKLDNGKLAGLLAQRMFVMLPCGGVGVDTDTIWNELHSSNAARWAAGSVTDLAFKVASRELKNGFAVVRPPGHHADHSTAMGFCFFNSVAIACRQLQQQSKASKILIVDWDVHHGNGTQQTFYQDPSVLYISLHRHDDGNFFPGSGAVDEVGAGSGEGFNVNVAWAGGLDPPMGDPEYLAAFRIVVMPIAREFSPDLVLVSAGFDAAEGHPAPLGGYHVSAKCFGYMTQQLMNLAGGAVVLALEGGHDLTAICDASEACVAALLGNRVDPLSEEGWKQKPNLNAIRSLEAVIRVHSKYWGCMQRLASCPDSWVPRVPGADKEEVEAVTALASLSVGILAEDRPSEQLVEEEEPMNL
Description: Inhibition of HDAC7 (unknown origin) after 60 mins by fluorescence assay.

The species named for experiment [6] is Homo sapiens. Description: Selectivity ratio of IC50 for HDAC4 (unknown origin) to IC50 for HDAC6 (unknown origin).
For experiment [7], the species on record is Homo sapiens. Description: Selectivity ratio of IC50 for HDAC4 (unknown origin) to IC50 for HDAC8 (unknown origin).

T1 sequence (Q92769 whole entry): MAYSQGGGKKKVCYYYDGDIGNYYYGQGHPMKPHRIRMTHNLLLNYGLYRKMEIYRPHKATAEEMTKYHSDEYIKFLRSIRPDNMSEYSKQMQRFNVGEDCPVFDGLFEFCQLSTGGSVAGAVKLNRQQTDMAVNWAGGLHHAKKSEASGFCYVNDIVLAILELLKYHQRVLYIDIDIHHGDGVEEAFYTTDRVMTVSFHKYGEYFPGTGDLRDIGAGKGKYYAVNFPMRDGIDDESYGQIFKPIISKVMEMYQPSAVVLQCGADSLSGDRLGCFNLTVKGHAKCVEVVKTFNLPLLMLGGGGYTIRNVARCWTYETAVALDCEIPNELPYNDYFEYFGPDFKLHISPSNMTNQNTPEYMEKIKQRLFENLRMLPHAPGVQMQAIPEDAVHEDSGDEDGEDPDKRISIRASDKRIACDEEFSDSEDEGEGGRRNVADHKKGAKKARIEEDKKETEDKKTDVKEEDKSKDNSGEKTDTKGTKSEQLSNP
Chain of Histone deacetylase 4 (P56524 whole entry): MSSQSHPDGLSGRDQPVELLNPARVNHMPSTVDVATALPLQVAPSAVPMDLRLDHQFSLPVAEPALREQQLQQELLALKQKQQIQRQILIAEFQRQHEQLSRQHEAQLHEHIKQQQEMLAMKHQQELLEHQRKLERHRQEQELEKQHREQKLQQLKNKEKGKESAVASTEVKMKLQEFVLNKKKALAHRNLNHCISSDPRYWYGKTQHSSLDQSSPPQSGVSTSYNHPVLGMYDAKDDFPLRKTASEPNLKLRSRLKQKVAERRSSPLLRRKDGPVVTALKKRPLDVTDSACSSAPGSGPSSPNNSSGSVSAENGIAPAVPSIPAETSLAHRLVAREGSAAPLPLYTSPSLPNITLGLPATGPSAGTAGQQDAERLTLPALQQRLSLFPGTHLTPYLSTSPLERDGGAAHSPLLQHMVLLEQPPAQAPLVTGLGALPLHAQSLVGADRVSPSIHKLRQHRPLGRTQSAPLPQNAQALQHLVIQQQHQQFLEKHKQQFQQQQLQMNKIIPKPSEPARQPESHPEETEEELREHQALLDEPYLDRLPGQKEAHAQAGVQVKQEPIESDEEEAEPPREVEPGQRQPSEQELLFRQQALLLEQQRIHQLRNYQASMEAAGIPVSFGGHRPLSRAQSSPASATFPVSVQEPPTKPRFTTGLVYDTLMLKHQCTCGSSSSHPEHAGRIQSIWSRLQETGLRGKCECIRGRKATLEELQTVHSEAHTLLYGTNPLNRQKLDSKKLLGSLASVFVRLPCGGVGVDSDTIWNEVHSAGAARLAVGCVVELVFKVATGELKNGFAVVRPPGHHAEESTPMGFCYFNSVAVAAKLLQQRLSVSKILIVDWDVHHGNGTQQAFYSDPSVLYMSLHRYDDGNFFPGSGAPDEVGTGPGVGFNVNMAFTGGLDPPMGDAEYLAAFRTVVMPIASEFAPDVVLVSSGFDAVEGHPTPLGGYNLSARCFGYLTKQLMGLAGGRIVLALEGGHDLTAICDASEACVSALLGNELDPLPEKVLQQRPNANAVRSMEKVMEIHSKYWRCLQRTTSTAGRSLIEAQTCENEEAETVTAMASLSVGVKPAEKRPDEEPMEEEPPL
Chain of Histone deacetylase 9 (Q9UKV0 whole entry): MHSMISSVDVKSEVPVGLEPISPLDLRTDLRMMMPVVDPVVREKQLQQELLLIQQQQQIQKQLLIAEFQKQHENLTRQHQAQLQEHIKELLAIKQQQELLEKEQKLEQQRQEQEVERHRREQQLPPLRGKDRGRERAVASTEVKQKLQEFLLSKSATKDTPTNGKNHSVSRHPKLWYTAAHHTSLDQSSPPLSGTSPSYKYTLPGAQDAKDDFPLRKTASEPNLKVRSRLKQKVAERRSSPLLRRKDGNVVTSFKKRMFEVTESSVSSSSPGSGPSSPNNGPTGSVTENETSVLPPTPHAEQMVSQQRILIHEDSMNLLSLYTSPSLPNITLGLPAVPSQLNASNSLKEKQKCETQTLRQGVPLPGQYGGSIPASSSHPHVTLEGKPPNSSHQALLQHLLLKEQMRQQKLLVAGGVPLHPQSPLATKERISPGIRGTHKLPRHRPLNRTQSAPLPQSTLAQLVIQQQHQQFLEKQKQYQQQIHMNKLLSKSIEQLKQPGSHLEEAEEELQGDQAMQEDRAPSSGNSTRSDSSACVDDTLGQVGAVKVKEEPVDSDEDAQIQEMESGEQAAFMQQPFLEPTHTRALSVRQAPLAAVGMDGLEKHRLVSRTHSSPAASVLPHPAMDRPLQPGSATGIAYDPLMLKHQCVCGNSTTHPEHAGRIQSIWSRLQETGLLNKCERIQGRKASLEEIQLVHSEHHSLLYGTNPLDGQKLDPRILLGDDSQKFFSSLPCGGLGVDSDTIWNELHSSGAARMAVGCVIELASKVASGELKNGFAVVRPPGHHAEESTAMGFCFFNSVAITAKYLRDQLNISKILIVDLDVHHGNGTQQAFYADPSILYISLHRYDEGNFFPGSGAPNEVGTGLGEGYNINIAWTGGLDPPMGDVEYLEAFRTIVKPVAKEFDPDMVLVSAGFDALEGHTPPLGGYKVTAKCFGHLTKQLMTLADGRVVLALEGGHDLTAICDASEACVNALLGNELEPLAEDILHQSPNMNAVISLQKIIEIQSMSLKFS
Chain of Histone deacetylase 5 (Q9UQL6 whole entry): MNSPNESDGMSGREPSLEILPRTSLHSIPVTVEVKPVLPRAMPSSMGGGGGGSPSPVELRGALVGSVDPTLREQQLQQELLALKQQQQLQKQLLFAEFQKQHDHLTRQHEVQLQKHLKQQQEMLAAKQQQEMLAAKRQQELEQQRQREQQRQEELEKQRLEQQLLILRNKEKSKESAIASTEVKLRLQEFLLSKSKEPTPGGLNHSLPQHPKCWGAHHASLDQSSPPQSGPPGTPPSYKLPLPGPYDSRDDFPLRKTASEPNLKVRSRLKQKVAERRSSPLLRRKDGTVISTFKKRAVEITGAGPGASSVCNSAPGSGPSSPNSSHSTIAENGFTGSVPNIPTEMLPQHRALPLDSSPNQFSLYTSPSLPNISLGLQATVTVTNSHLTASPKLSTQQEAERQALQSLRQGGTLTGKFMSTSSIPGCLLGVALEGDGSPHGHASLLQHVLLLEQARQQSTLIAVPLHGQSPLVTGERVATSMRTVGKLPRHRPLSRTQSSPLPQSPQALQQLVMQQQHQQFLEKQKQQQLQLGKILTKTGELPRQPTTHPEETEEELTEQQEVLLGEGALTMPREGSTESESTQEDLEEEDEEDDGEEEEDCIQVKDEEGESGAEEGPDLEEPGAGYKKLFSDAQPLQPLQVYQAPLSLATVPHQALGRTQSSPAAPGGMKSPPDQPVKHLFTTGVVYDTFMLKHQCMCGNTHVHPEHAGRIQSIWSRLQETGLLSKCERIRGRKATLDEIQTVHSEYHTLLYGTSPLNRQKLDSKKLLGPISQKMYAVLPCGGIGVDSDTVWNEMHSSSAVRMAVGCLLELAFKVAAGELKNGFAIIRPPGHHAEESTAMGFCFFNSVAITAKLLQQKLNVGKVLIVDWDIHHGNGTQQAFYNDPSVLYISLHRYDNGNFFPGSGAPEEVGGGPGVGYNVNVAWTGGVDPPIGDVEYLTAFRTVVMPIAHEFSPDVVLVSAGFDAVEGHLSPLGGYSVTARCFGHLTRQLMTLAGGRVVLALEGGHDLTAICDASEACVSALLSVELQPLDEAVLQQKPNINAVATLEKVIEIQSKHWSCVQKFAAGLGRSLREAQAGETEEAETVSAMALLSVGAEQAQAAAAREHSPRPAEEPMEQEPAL
Chain of Histone deacetylase 1 (Q13547 whole entry): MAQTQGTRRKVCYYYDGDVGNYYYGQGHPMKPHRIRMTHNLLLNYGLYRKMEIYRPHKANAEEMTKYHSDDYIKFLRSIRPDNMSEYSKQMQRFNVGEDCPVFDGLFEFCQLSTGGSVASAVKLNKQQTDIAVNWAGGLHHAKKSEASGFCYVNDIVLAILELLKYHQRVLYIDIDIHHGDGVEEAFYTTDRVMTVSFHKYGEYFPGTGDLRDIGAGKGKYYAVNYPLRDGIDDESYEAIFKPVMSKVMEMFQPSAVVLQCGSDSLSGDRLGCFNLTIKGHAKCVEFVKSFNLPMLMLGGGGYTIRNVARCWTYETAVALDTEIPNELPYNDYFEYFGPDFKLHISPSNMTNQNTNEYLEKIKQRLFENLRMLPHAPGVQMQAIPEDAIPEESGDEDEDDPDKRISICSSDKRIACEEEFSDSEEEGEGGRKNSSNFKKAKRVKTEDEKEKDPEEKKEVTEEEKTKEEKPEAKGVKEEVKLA
Chain of Histone deacetylase 3 (O15379 whole entry): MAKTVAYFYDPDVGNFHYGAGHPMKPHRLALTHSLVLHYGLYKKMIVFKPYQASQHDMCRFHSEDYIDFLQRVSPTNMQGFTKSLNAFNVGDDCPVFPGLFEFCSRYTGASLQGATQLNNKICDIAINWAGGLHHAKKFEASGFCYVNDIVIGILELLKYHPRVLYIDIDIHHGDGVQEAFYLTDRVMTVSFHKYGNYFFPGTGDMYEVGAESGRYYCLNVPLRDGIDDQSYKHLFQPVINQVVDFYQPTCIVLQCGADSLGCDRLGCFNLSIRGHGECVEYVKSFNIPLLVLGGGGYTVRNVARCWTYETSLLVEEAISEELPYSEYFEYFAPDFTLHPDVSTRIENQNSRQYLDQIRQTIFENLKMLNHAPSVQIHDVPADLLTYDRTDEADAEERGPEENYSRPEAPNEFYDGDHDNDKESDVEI

On to `Cc1cccc(C(=O)NO)c1`, for which the IC50 at Histone deacetylase 2 [1] is more than 33 µM; at Histone deacetylase 8, 3.3 µM; on Histone deacetylase 4, more than 33 µM; in experiment [2], 0.65 µM.

Turning to `O=C(NO)c1cccc(C(=O)NCCc2ccccc2)c1`, the half-inhibitory concentration (IC50) is 9 µM against Histone deacetylase 2 [1]; more than 33 µM against Histone deacetylase 9; more than 33 µM against Histone deacetylase 5; 12 µM against Histone deacetylase 1; 23 µM on Histone deacetylase 3. Also, the inhibition entry at Histone deacetylase 2 [3] was “Active”.

For `O=C(/C=C/c1cccc(C(=O)NO)c1)Nc1ccccc1`, the IC50 on Histone deacetylase 2 [1] is 4.8 µM; on Histone deacetylase 9, 12 µM; against Histone deacetylase 8, 0.037 µM; on Histone deacetylase 7, 8.4 µM; on Histone deacetylase 4, 14 µM; on Histone deacetylase 5 it was 26 µM. Moreover, the IC50 in experiment [2] came out at 0.021 µM; against Histone deacetylase 1, 6.1 µM; at Histone deacetylase 3, 18 µM. Further, the Ratio IC50 in the experiment filed under Homo sapiens [4], in the experiment listed under Homo sapiens [5], in the experiment filed under Homo sapiens [6] and in the experiment filed under Homo sapiens [7] was more than 130 throughout. Moreover, the inhibition result on Histone deacetylase 2 [3] was “Active”.

Turning to `O=C(NO)c1cccc(CNc2ccccc2)c1`, the IC50 against Histone deacetylase 2 [1] is more than 33 µM; on Histone deacetylase 8 it was 1.7 µM; against Histone deacetylase 4 it was more than 33 µM; in experiment [2], 1.3 µM.

On to `CNC(=O)c1cccc(C(=O)NO)c1`, for which the IC50 against Histone deacetylase 2 [1] was more than 33 µM; against Histone deacetylase 8 it was 14 µM; against Histone deacetylase 4, more than 33 µM; in experiment [2] it was 2.5 µM.

For the compound `O=C(NO)c1cccc(C(=O)NCCc2cccnc2)c1`, the half-inhibitory concentration (IC50) is 20 µM against Histone deacetylase 2 [1], 0.42 µM against Histone deacetylase 8, more than 33 µM against Histone deacetylase 4 and 0.059 µM in [2].

Consider `O=C(NO)c1cccc(C(=O)Nc2ccccc2)c1`, for which, at Histone deacetylase 4, the IC50 was more than 33 µM.

`O=C(NO)c1cccc(C(=O)NCc2ccccc2)c1`: the IC50 at Histone deacetylase 2 [1] is 11 µM; against Histone deacetylase 8 it was 0.21 µM; on Histone deacetylase 4, more than 33 µM; in experiment [2] it was 0.034 µM. In addition, the Ratio IC50 in the experiment listed under Homo sapiens [4], in the experiment listed under Homo sapiens [5], in the experiment filed under Homo sapiens [6] and in the experiment listed under Homo sapiens [7] was more than 50 each time.
